The term Km denotes the concentration of substrate that gives half-maximal velocity. Broadly, the kcat is the number of substrate molecules converted per active site and unit of time at saturation. One may read the kcat/KM as the second-order rate constant that governs catalysis at low substrate concentration.

The subject of assay [1] is SETD7. Description: MALDI-TOF MS methylation assay of H3K4 peptides with SETD7. In kind it is biochemical, human. As to conditions: peptide 100 µM, SETD7 2 µM, SAM 200 µM, 1 h, 37 °C. The procedure: (§1) MALDI-MS methyltransferases activity experiments were performed using a Bruker instrument in the reflectron positive mode. For regular methyltransferase standard conditions experiment which carried out in 30 µL total volume, the mixture contains peptide (100 µM), SAM (200 µM), SETD8 or SETD7 (2 µM), in assay buffer 50 mM Tris at optimal pH 8.0. In case of G9a and GLP, similar conditions were used, except (500 µM) of SAM was added to the reaction mixture. Samples were incubated in an Eppendorf vial 1.5 mL using thermomixer for 1 h at 37 °C. A 5 µL aliquot of the solution was mixed with 5 µL of MeOH, after which 5 µL of this mixture was mixed with 5 µL of α-cyano-4-hydroxycinamic acid matrix (CHCA, 5 mg/mL in 125:125 µL acetonitrile/water). The spots were placed on a stainless steel MALDI plate (MS 96 target ground steel BC of Bruker, Germany). The mass corresponding to one monomethylation observed as +14 Da, dimethylation observed as +28 Da and trimethylation observed as +42 Da. The enzymatic activity was determined by taking the peak areas of each methylation state, including all isotopes and adducts, and was annotated using FlexAnalysis software (Bruker Daltonics, Germany). […] Methylated peptide substrates were repeated five times and the unmethylated substrates were triplicated. Sequences of the examined peptides are given in (Supplementary Table 1).

The test system of assay [2] is SETD7. Kind of assay: Inhibition study of SETD7 (MALDI-TOF MS). In kind it is biochemical, human. As to conditions: peptide 100 µM, SETD7 100 nM, SAM 20 µM, 21-mer H3 peptide 5 µM, 30 min, 37 °C. The procedure: A mixture of histone peptide (0–100 µM final conc.) and SETD7, G9a or GLP (100 nM final conc.) was preincubated for 5 minutes at 37 °C in 18 µL of 50 mM glycine pH 8.8 containing 2.5% glycerol as assay buffer. Then 2 µL of a pre-mixture of SAM (20 µM final conc.) and 21-mer H3 histone peptide (residues 1–21, 5 µM final conc.) was added to afford a final assay mixture (20 µL) and the enzymatic reaction was incubated for an additional 30 minutes at 37 °C before quenching with 20 μL of MeOH. The quenched reaction (1 μL) was mixed with a solution of saturated α-cyano-4-hydroxycinnamic acid (5 μL) and spotted on the MALDI plate for crystallisation. The enzymatic activity was determined by taking the peak areas of each methylation state (including all isotopes and adducts) and is expressed relative to a control reaction in the absence of unnatural histone peptides. Each inhibition experiment was carried out in replicate.

The target in assay [3] is T1, SETD8 (Homo sapiens, UniProt Q9NQR1).
T1 construct: His6 (N); made in house; host or cells: E. coli BL21 (DE3)pLysS-rosetta
T1 sequence (Q9NQR1 1-393): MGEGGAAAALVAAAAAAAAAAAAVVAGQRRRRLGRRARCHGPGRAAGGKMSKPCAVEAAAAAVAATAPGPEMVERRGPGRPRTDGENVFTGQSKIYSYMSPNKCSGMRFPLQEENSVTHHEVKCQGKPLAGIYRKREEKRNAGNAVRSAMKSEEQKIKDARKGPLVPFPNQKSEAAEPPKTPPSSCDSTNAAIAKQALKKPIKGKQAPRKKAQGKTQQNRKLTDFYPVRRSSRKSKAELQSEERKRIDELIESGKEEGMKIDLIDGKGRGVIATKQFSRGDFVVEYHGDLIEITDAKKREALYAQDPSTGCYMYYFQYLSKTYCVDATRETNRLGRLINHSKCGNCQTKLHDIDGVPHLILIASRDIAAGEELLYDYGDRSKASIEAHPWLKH
Description: Enzyme kinetics of SETD8-catalyzed methylation (MALDI-TOF MS). The class given is biochemical. To be noted: MALDI-TOF MS assay. As to the method: To establish the substrate efficiency of lysine- and KCP-containing histone peptides, we carried out enzyme kinetics analysis, employing the MALDI-TOF MS assays. Both enzymes preferentially catalyze methylation of natural histone sequences, however, bulkier KCP-containing peptides still underwent favorable kinetics profiles (Table 1 and Supplementary Fig. 30).
as §1

Assay [4] addresses T1, SETD8. Kind of assay: MALDI-TOF MS methylation assay of H4K20 peptides with SETD8. The class given is biochemical. As to conditions: peptide 100 µM, 37 °C; for SETD8-catalyzed methylation, result in words, increased SETD8/SAM and prolonged incubation: SETD8 10 µM, SAM 1 mM, 1 h and 5 h, MALDI-MS. The procedure: as §1, with “For regular methyltransferase standard conditions experiment which carried out in 30 µL total volume, the mixture contains peptide (100 µM), SAM (200 µM), SETD8 or SETD7 (2 µM), in assay buffer 50 mM Tris at optimal pH 8.0.” left out

The target in assay [5] is T1, SETD8. Description: Competition study between H4K20 and analog peptides with SETD8 (MALDI-MS). The class given is biochemical. To be noted: SETD8, equimolar H4K20 (100 µM) and H4KCP20 (100 µM), SAM 200 µM, 1 h, 37 °C. From the text: Next, we carried out competition studies between histone peptides that bear lysine and its analogs. In the presence of SETD8, SAM and equimolar amounts of H4K20 and H4KCP20, we observed the formation of both monomethylated products, albeit a comparatively larger degree of monomethylation of H4K20 was found (70% of H4K20me, 40% of H4KCP20me). […] It is also possible that subtle differences in sterics and electronics of H4KCP20 when compared to H4K20 do contribute to observed differences in the degree of methylation in the competition experiment.
Figure S31. MALDI-MS based assay showing ( a) SETD8-catalyzed monomethylation of […]
(b) SETD8-catalyzed methylation of H4K20 (100 µM) in the presence of H4F 3a20 (100 µM) and SAM (200 µM) after 1 h at 37 °C; ( c) SETD8-catalyzed methylation of H4K20 (100 µM) in the presence of H4F 4a20 (100 µM) and SAM (200 µM) after 1 h at 37 °C; ( d) SETD8-catalyzed methylation of H4K20 (100 µM) in the presence of H4A p20 (100 µM) and SAM (200 µM) after 1 h at 37 °C; ( e) SETD8-catalyzed methylation of H4K20 (100 µM) in the presence of […]
(1 picture or pasted object on this page, not shown here)

Where [6] appears, read: SETD8 2 µM, SAM 200 µM, 50 mM Tris pH 8.0, 1 h, MALDI-TOF MS.

In the case of “ART(F4a4)QTARKSTGGKA [H3F4a4, H3K4 peptide bearing para-aminophenylalanine at position 4]”, the “SETD7-catalyzed methylation, result in words” value with SETD7 [1] is given as “lack of methylation”. The “inhibition of SETD7 at 100 µM peptide” value in the assay with SETD7 [2] is 11%.
Consider “GGAKRHR(Kcp20)VLRDNIQ [H4KCP20, H4K20 peptide bearing cyclopropyllysine at position 20]”, for which, at SETD8 [3], the Km turned out to be 172 ± 37 µM, the kcat stood at 0.68 ± 0.08 min⁻¹ and the specificity constant (kcat/KM) was determined as 3.96 mM⁻¹ min⁻¹. Also, at SETD8 [4] (setting [6]), the “SETD8-catalyzed methylation, result in words” value was “methylation” and the “monomethylated product formed (H4KCP20me)” value was found to be 60%. The “SETD8-catalyzed methylation, result in words, increased SETD8/SAM and prolonged incubation” value at SETD8 [4] is reported as “almost complete formation of the monomethylated H4KCP20me product”. Moreover, the “SETD8-catalyzed methylation, result in words, increased SETD8/SAM and prolonged incubation” value at SETD8 [4] (listed as H4K CP20) is “predominant monomethylation”. The “monomethylated product formed in competition experiment” value at SETD8 [5] is recorded as 40%.

For the origin of these results see paper PMC7048932, “Examining sterically demanding lysine analogs for histone lysine methyltransferase catalysis” (Scientific Reports, 2020).
